This is an account of results in BindingDB's records for doi:10.1016/j.bmcl.2003.12.063 (Sankyo, 2004).

The structures appear in SMILES notation.

By IC50 is commonly meant the concentration at which inhibition is half-maximal. A low value points to inhibition by little substance.

For this test, the target named is Ileal sodium/bile acid cotransporter (Mesocricetus auratus). Briefly: In vitro Inhibition of apical sodium-dependent bile acid transporter by measuring the uptake of [3H]taurocholate in hamster ileal ring.

On to `CCC(CC)CC(=O)c1c(C(=O)OC)c(-c2ccc(OC)c(OC)c2)c2c(OC)c(OC)c(OC)cc2c1O` [1-(3,4-Dimethoxy-phenyl)-3-(3-ethyl-pentanoyl)-4-hydroxy-6,7,8-trimethoxy-naphthalene-2-carboxylic acid methyl ester], for which the IC50 was > 185 µM.

On to `CCN(C(=O)c1cn(-c2cc(OC)cc(OC)c2)c2cc(OCCCCCCC[N+]34CCN(CC3)CC4)ccc2c1=O)c1cc(F)cc(F)c1` [1-{7-[3-[(3,5-Difluoro-phenyl)-ethyl-carbamoyl]-1-(3,5-dimethoxy-phenyl)-4-oxo-1,4-dihydro-quinolin-7-yloxy]-heptyl}-4-aza-1-azonia-bicyclo[2.2.2]octane; bromide], for which the IC50 came out at 0.77 µM.

On to `CCN(C(=O)c1cn(-c2cc(OC)cc(OC)c2)c2cc(OCCCCCCCC[N+]34CCN(CC3)CC4)ccc2c1=O)c1cc(F)cc(F)c1` [1-{8-[3-[(3,5-Difluoro-phenyl)-ethyl-carbamoyl]-1-(3,5-dimethoxy-phenyl)-4-oxo-1,4-dihydro-quinolin-7-yloxy]-octyl}-4-aza-1-azonia-bicyclo[2.2.2]octane; bromide], for which the IC50 amounted to 1.07 µM.

For the molecule `CCC(CC)CC(=O)c1c(C(=O)OC)c(-c2ccc(OC)c(OC)c2)c2c(OC)c(OC)c(OC)cc2c1OC1O[C@H](C(=O)O)[C@@H](O)[C@H](O)[C@H]1O` (stereo partly drawn) [(2S,3S,4S,5R)-6-[4-(3,4-Dimethoxy-phenyl)-2-(3-ethyl-pentanoyl)-5,6,7-trimethoxy-3-methoxycarbonyl-naphthalen-1-yloxy]-3,4,5-trihydroxy-tetrahydro-pyran-2-carboxylic acid], the IC50 is 2.8 µM.

In the case of `CCCCC1(CCCC)CS(=O)(=O)c2ccc(N(C)C)cc2[C@@H](c2ccc(OC)cc2)[C@H]1O` [(4R,5R)-3,3-Dibutyl-7-dimethylamino-5-(4-methoxy-phenyl)-1,1-dioxo-2,3,4,5-tetrahydro-1H-1lambda*6*-benzo[b]thiepin-4-ol], the IC50 was > 63 µM.
